In PubChem BioAssay AID1963449 (Molecular Pharmacology Branch, DTP, NCI, 2024):

Tested on: 596521-263-R-J1-PDC complex spheroid growth
Assay: Anticancer human tumor 596521-263-R-J1-PDC patient-derived soft tissue sarcoma cell line growth inhibition [Asc]
Details: for IC50: curve of first compound; for viability, T/C: stronger effect = lower value
Procedure, shortened: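 Complex spheroids combining tumor cells with HUVEC endothelial cells and human MSCs, at 37 degrees C, 5% CO2; agents tested alone or combined, half-log dilutions from at or near clinical Cmax, or 10 microM if Cmax unknown.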
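Further: spheroids exposed to compounds for 7 days.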

## Cc1nc(N2CCC3(CC2)COC(C)C3N)c(CO)nc1Sc1ccnc(N)c1Cl (configuration not stated) + Cc1c(S(C)(=O)=O)c(-c2cc(F)cc(N3CCN(c4ccc(NS(=O)(=O)c5ccc(NC(CCN6CCC(C(=O)OCCCP(=O)(O)O)CC6)CSc6ccccc6)c(S(=O)(=O)C(F)(F)F)c5)cc4)CC3)c2)c(-c2ccc(Cl)cc2)n1C(C)C
Second compound 0.0316 µM
  IC50: > 3000 nM
Second compound 0.1 µM
  IC50: > 3000 nM
Second compound 0.316 µM
  IC50: > 3000 nM
Second compound 1 µM
  IC50: 2020 nM
Second compound 3.16 µM
  IC50: 443 nM
Second compound 10 µM
  IC50: 97.7 nM
Second compound 0.0316 µM, first compound 0.00949 µM
  viability, T/C: 85.5%
Second compound 0.0316 µM, first compound 0.03 µM
  viability, T/C: 99.6%
Second compound 0.0316 µM, first compound 0.0949 µM
  viability, T/C: 77.5%
Second compound 0.0316 µM, first compound 0.3 µM
  viability, T/C: 89%
Second compound 0.0316 µM, first compound 0.949 µM
  viability, T/C: 82.9%
Second compound 0.0316 µM, first compound 3 µM
  viability, T/C: 61.9%
Second compound 0.1 µM, first compound 0.00949 µM
  viability, T/C: 87.8%
Second compound 0.1 µM, first compound 0.03 µM
  viability, T/C: 100%
Second compound 0.1 µM, first compound 0.0949 µM
  viability, T/C: 87.2%
Second compound 0.1 µM, first compound 0.3 µM
  viability, T/C: 93.7%
Second compound 0.1 µM, first compound 0.949 µM
  viability, T/C: 84.6%
Second compound 0.1 µM, first compound 3 µM
  viability, T/C: 59.5%
Second compound 0.316 µM, first compound 0.00949 µM
  viability, T/C: 86.4%
Second compound 0.316 µM, first compound 0.03 µM
  viability, T/C: 93.7%
Second compound 0.316 µM, first compound 0.0949 µM
  viability, T/C: 87.2%
Second compound 0.316 µM, first compound 0.3 µM
  viability, T/C: 81.4%
Second compound 0.316 µM, first compound 0.949 µM
  viability, T/C: 68.9%
Second compound 0.316 µM, first compound 3 µM
  viability, T/C: 59.7%
Second compound 1 µM, first compound 0.00949 µM
  viability, T/C: 90.6%
Second compound 1 µM, first compound 0.03 µM
  viability, T/C: 85%
Second compound 1 µM, first compound 0.0949 µM
  viability, T/C: 73.4%
Second compound 1 µM, first compound 0.3 µM
  viability, T/C: 76.7%
Second compound 1 µM, first compound 0.949 µM
  viability, T/C: 64.5%
Second compound 1 µM, first compound 3 µM
  viability, T/C: 42.1%
Second compound 3.16 µM, first compound 0.00949 µM
  viability, T/C: 62.6%
Second compound 3.16 µM, first compound 0.03 µM
  viability, T/C: 63.2%
Second compound 3.16 µM, first compound 0.0949 µM
  viability, T/C: 57.4%
Second compound 3.16 µM, first compound 0.3 µM
  viability, T/C: 50%
Second compound 3.16 µM, first compound 0.949 µM
  viability, T/C: 47.3%
Second compound 3.16 µM, first compound 3 µM
  viability, T/C: 36.5%
Second compound 10 µM, first compound 0.00949 µM
  viability, T/C: 48.5%
Second compound 10 µM, first compound 0.03 µM
  viability, T/C: 54.4%
Second compound 10 µM, first compound 0.0949 µM
  viability, T/C: 52.2%
Second compound 10 µM, first compound 0.3 µM
  viability, T/C: 42.6%
Second compound 10 µM, first compound 0.949 µM
  viability, T/C: 36%
Second compound 10 µM, first compound 3 µM
  viability, T/C: 28.2%
